What follows are compounds tested on Bmi-1 (assay: Sandwich ELISA Assay (Bmi-1 ELISA) in HT-1080 cells).
Assay type: cell-based
In short: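 Bmi-1 in lysates was measured by a three-antibody ELISA with TMB, OD450 minus OD570 reference, interpolated on a GST-tagged recombinant Bmi-1 standard curve, 0-8000 pg/mL. Lysates came from HT-1080 cells treated 40-48 h with compound, final DMSO 0.5%.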

Row | Compound | EC50 [nM]
1 | Cc1nc2cc(Cl)ccc2n1-c1nc(N)cc(Nc2ccc(OC(F)F)cc2)n1 [Cpd 99, 2-(5-chloro-2-methyl-1H-benzimidazol-1-yl)-N-[4-(difluoromethoxy)phenyl]pyrimidine-4,6-diamine] | 100 to 3000
2 | Cc1nc2cc(F)c(F)cc2n1-c1nc(N)cc(Nc2ccc(OC(F)F)c(F)c2)n1 [Cpd 101, N-[4-(difluoromethoxy)-3-fluorophenyl]-2-(5,6-difluoro-2-methyl-1H-benzimidazol-1-yl)pyrimidine-4,6-diamine] | 10 to 100
3 | Cc1nc2cc(F)c(F)cc2n1-c1nc(N)cc(Nc2ccc(OC(F)F)cc2)n1 [Cpd 102, N-[4-(difluoromethoxy)phenyl]-2-(5,6-difluoro-2-methyl-1H-benzimidazol-1-yl)pyrimidine-4,6-diamine] | 10 to 100
4 | Nc1cc(Nc2ccc(OC(F)F)cc2)nc(-n2c(C3CC3)nc3ncc(F)cc32)n1 [Cpd 103, 2-(2-cyclopropyl-6-fluoro-1H-imidazo[4,5-b]pyridin-1-yl)-N-[4-(difluoromethoxy)phenyl]pyrimidine-4,6-diamine] | 10 to 100
5 | Cc1nc2ncc(Cl)cc2n1-c1nc(N)cc(Nc2ccc(C(F)(F)F)cc2)n1 [Cpd 104, 2-(6-chloro-2-methyl-1H-imidazo[4,5-b]pyridin-1-yl)-N-[4-(trifluoromethyl)phenyl]pyrimidine-4,6-diamine] | 10 to 100
6 | CCc1nc2ncc(Cl)cc2n1-c1nc(N)cc(Nc2ccc(C(F)(F)F)cc2)n1 [Cpd 105, 2-(6-chloro-2-ethyl-1H-imidazo[4,5-b]pyridin-1-yl)-N-[4-(trifluoromethyl)phenyl]pyrimidine-4,6-diamine] | 10 to 100
7 | Cc1nc2ccccc2n1-c1nc(N)c(F)c(Nc2ccc(OC(F)F)cc2)n1 [Cpd 106, N-[4-(difluoromethoxy)phenyl]-5-fluoro-2-(2-methyl-1H-benzimidazol-1-yl)pyrimidine-4,6-diamine] | 10 to 100
8 | CCc1nc2ccccc2n1-c1nc(N)c(F)c(Nc2ccc(C(F)(F)F)cc2)n1 [Cpd 107, 2-(2-ethyl-1H-benzimidazol-1-yl)-5-fluoro-N-[4-(trifluoromethyl)phenyl]pyrimidine-4,6-diamine] | 10 to 100
9 | Cc1nc2cc(F)ccc2n1-c1nc(N)c(F)c(Nc2ccc(C(F)(F)F)cc2)n1 [Cpd 108, 5-fluoro-2-(5-fluoro-2-methyl-1H-benzimidazol-1-yl)-N-[4-(trifluoromethyl)phenyl]pyrimidine-4,6-diamine] | 100 to 3000
10 | Cc1nc2ccc(F)cc2n1-c1nc(N)c(F)c(Nc2ccc(OC(F)F)cc2)n1 [Cpd 110, N-[4-(difluoromethoxy)phenyl]-5-fluoro-2-(6-fluoro-2-methyl-1H-benzimidazol-1-yl)pyrimidine-4,6-diamine] | 10 to 100
11 | Cc1nc2ccc(F)cc2n1-c1nc(N)c(F)c(Nc2ccc(OC(F)F)c(F)c2)n1 [Cpd 111, N-[4-(difluoromethoxy)-3-fluorophenyl]-5-fluoro-2-(6-fluoro-2-methyl-1H-benzimidazol-1-yl)pyrimidine-4,6-diamine] | 10 to 100
12 | Cc1nc2cc(F)ccc2n1-c1nc(N)c(F)c(Nc2ccc(OC(F)F)c(F)c2)n1 [Cpd 112, N-[4-(difluoromethoxy)-3-fluorophenyl]-5-fluoro-2-(5-fluoro-2-methyl-1H-benzimidazol-1-yl)pyrimidine-4,6-diamine] | 10 to 100
13 | Cc1nc2cc(F)ccc2n1-c1nc(N)c(F)c(Nc2ccc(OC(F)F)cc2)n1 [Cpd 113, N-[4-(difluoromethoxy)phenyl]-5-fluoro-2-(5-fluoro-2-methyl-1H-benzimidazol-1-yl)pyrimidine-4,6-diamine] | 10 to 100
14 | Cc1nc2ncc(Cl)cc2n1-c1nc(N)c(F)c(Nc2ccc(C(F)(F)F)cc2)n1 [Cpd 114, 2-(6-chloro-2-methyl-1H-imidazo[4,5-b]pyridin-1-yl)-5-fluoro-N-[4-(trifluoromethyl)phenyl]pyrimidine-4,6-diamine] | 10 to 100
15 | Cc1nc2ncc(Cl)cc2n1-c1nc(N)c(F)c(Nc2ccc(OC(F)F)cc2)n1 [Cpd 115, 2-(6-chloro-2-methyl-1H-imidazo[4,5-b]pyridin-1-yl)-N-[4-(difluoromethoxy)phenyl]-5-fluoropyrimidine-4,6-diamine] | 10 to 100
16 | Cc1nc2ncc(Cl)cc2n1-c1nc(N)c(F)c(Nc2ccc(OC(F)F)c(F)c2)n1 [Cpd 116, 2-(6-chloro-2-methyl-1H-imidazo[4,5-b]pyridin-1-yl)-N-[4-(difluoromethoxy)-3-fluorophenyl]-5-fluoropyrimidine-4,6-diamine] | 10 to 100
17 | Nc1nc(-n2c(C3CC3)nc3ncc(F)cc32)nc(Nc2ccc(C(F)(F)F)cc2)c1F [Cpd 117, 2-(2-cyclopropyl-6-fluoro-1H-imidazo[4,5-b]pyridin-1-yl)-5-fluoro-N-[4-(trifluoromethyl)phenyl]pyrimidine-4,6-diamine] | 10 to 100
18 | FC(F)(F)c1ccc(Nc2ccnc(-c3cnc4ccccn34)n2)cc1 [Cpd 118, 2-(imidazo[1,2-a]pyridin-3-yl)-N-[4-(trifluoromethyl)phenyl]pyrimidin-4-amine] | 100 to 3000
19 | Cc1nc2ccccc2n1-c1nc(N)c(F)c(Nc2ccc(OC(F)F)c(F)c2)n1 [Cpd 119, N-[4-(difluoromethoxy)-3-fluorophenyl]-5-fluoro-2-(2-methyl-1H-benzimidazol-1-yl)pyrimidine-4,6-diamine] | 10 to 100
20 | Nc1nc(-n2c(C3CC3)nc3ccccc32)nc(Nc2ccc(C(F)(F)F)cc2)c1F [Cpd 120, 2-(2-cyclopropyl-1H-benzimidazol-1-yl)-5-fluoro-N-[4-(trifluoromethyl)phenyl]pyrimidine-4,6-diamine] | 10 to 100
21 | Nc1nc(-n2c(C3CC3)nc3ccccc32)nc(Nc2ccc(OC(F)F)cc2)c1F [Cpd 121, 2-(2-cyclopropyl-1H-benzimidazol-1-yl)-N-[4-(difluoromethoxy)phenyl]-5-fluoropyrimidine-4,6-diamine] | 1 to 10
22 | Nc1nc(-n2c(C3CC3)nc3ccccc32)nc(Nc2ccc(OC(F)F)c(F)c2)c1F [Cpd 122, 2-(2-cyclopropyl-1H-benzimidazol-1-yl)-N-[4-(difluoromethoxy)-3-fluorophenyl]-5-fluoropyrimidine-4,6-diamine] | 10 to 100
23 | CCc1nc2ccccc2n1-c1nc(N)c(F)c(Nc2ccc(OC(F)F)cc2)n1 [Cpd 123, N-[4-(difluoromethoxy)phenyl]-2-(2-ethyl-1H-benzimidazol-1-yl)-5-fluoropyrimidine-4,6-diamine] | 1 to 10
24 | CCc1nc2ccccc2n1-c1nc(N)c(F)c(Nc2ccc(OC(F)F)c(F)c2)n1 [Cpd 124, N-[4-(difluoromethoxy)-3-fluorophenyl]-2-(2-ethyl-1H-benzimidazol-1-yl)-5-fluoropyrimidine-4,6-diamine] | 10 to 100
25 | Cc1nc2cc(F)c(F)cc2n1-c1nc(N)c(F)c(Nc2ccc(C(F)(F)F)cc2)n1 [Cpd 125, 2-(5,6-difluoro-2-methyl-1H-benzimidazol-1-yl)-5-fluoro-N-[4-(trifluoromethyl)phenyl]pyrimidine-4,6-diamine] | 100 to 3000
26 | Cc1nc2cc(F)c(F)cc2n1-c1nc(N)c(F)c(Nc2ccc(OC(F)F)c(F)c2)n1 [Cpd 126, N-[4-(difluoromethoxy)-3-fluorophenyl]-2-(5,6-difluoro-2-methyl-1H-benzimidazol-1-yl)-5-fluoropyrimidine-4,6-diamine] | 10 to 100

From US11180483B2, “Substituted reverse pyrimidine Bmi-1 inhibitors” (PTC Therapeutics, Inc., priority 2012, dated 2021)
